Laboratory results as given in patent US11267795B2, “Crystalline PPAR-delta agonist” (Reneo Pharmaceuticals, Inc., priority 2020, dated 2022).
Marks after values point to notes of the source that are not given here.

What was measured:
[1] = Stability of solid state forms under static storage, re-analysed by XRPD; type: physicochemical
Experimental: Crystalline Form 1 of Compound II (4 g) was placed in a crystallization dish and stored in a stability chamber at 25° C./97% RH. XRPD analysis was regularly performed to verify the conversion to Form 2. Complete conversion was observed after 4 weeks at 25° C./97% RH.
Samples were assessed for stability under ambient or static storage conditions of 25° C./97% RH and 40° C./75% RH for 7 or 10 days. The samples were then re-analyzed by XRPD.
Results of the subsequent XRPD analysis for the crystalline forms are described in the following table: […]

[2] = Gravimetric Vapor Sorption (GVS) with XRPD re-analysis; type: physicochemical; details: for Reversible Water Uptake between 0-90% RH: GVS, 25° C.; for Solid State Form After GVS (XRPD): after isotherm experiment at 90% RH and 25° C.
Experimental: Sorption isotherms were obtained using a SMS DVS Intrinsic moisture sorption analyzer, controlled by DVS Intrinsic Control software. The sample temperature was maintained at 25° C. by the instrument controls. The humidity was controlled by mixing streams of dry and wet nitrogen, with a total flow rate of 200 ml/min. The relative humidity was measured by a calibrated Rotronic probe (dynamic range of 1.0-100% RH), located near the sample. The weight change, (mass relaxation) of the sample as a function of % RH was constantly monitored by a microbalance (accuracy ±0.005 mg).
Typically, 5-30 mg of sample was placed in a tared mesh stainless steel basket under ambient conditions. The sample was loaded and unloaded at 40% RH and 25° C. (typical room conditions). A moisture sorption isotherm was performed as outlined below (2 scans per complete cycle). The standard isotherm was performed at 25° C. at 10% RH intervals over a 0-90% RH range. Typically, a double cycle (4 scans) was carried out. Data analysis was carried out within Microsoft Excel using the DVS Analysis Suite.
The method for SMS DVS Intrinsic experiments is outlined in the following table:
Reversible water uptake for the crystalline forms and patterns as determined by Gravimetric Vapor Sorption (GVS) are as described in the following table:
The samples were recovered after completion of the isotherm experiment at […] and 25° C. and re-analyzed by XRPD.

[3] = Stability of solid forms on drying, vacuum or standing (XRPD); type: physicochemical
Experimental: Crystalline Hydrate Form 2 of Compound II was portioned into two and half was placed in the vacuum oven at RT. After 24 h the sample was analyzed by XRPD. Some small differences between the XRPD pattern and the Form 2 reference were noted. After 4 days in the vacuum oven complete conversion was observed.

[4] = Variable temperature XRPD (heating); type: physicochemical; details: heating to 110° C.
Experimental: For variable temperature (VT-XRPD) experiments the samples were prepared and analyzed in an Anton Paar chromed sample holder. A heating/cooling rate of 10° C./min was used with a 2 min isothermal hold before the measurement started. The measurement parameters are as per the standard screening data collection method (detailed above). Measurements were taken at the following temperatures: […]

[5] = test system: mice; details: cited from earlier work

Compound: Cc1cc(OC/C=C(/c2ccc(F)cc2)c2ccc(C#CCN3CCOCC3)cc2)ccc1OCC(=O)[O-].[Na+] [Form 1, sodium (E)-2-(4-((3-(4-fluorophenyl)-3-(4-(3-morpholinoprop-1-yn-1-yl)phenyl)allyl)oxy)-2-methylphenoxy)acetate]
- solid state form by XRPD after storage ([1]; 25° C./97% RH/7 days): Form 2
- solid state form by XRPD after storage ([1]; 40° C./75% RH/7 days): Unchanged (Form 1)
- time to complete conversion to Form 2 ([1]; stability chamber at 25° C./97% RH, 4 g): 4 weeks
- Reversible Water Uptake between 0-90% RH [2]: ~13.0% †
- Solid State Form After GVS (XRPD) [2]: Unchanged (Form 1)

Compound: Cc1cc(OC/C=C(/c2ccc(F)cc2)c2ccc(C#CCN3CCOCC3)cc2)ccc1OCC(=O)[O-].[Na+] [Form 2, sodium (E)-2-(4-((3-(4-fluorophenyl)-3-(4-(3-morpholinoprop-1-yn-1-yl)phenyl)allyl)oxy)-2-methylphenoxy)acetate]
- solid state form by XRPD after storage ([1]; 25° C./97% RH/7 days): Unchanged (Form 2)
- solid state form by XRPD after storage ([1]; 40° C./75% RH/7 days): Unchanged (Form 2)
- time to complete conversion to Pattern 9 ([3]; vacuum oven at RT): 4 days
- Reversible Water Uptake between 0-90% RH [2]: ~25%
- Solid State Form After GVS (XRPD) [2]: Unchanged (Form 2)

Compound: Cc1cc(OC/C=C(/c2ccc(F)cc2)c2ccc(C#CCN3CCOCC3)cc2)ccc1OCC(=O)[O-].[Na+] [Form 3, sodium (E)-2-(4-((3-(4-fluorophenyl)-3-(4-(3-morpholinoprop-1-yn-1-yl)phenyl)allyl)oxy)-2-methylphenoxy)acetate]
- solid state form by XRPD after storage ([1]; 40° C./75% RH/7 days): Form 1
- solid form stability on drying [3]: converts to Form 1
- solid form stability on standing ([3]; standing in ambient conditions): converts to Form 1
- Reversible Water Uptake between 0-90% RH [2]: ~9.0%
- Solid State Form After GVS (XRPD) [2]: Form 1

Compound: Cc1cc(OC/C=C(/c2ccc(F)cc2)c2ccc(C#CCN3CCOCC3)cc2)ccc1OCC(=O)[O-].[Na+] [Form 4, sodium (E)-2-(4-((3-(4-fluorophenyl)-3-(4-(3-morpholinoprop-1-yn-1-yl)phenyl)allyl)oxy)-2-methylphenoxy)acetate]
- solid state form by XRPD after storage ([1]; 25° C./97% RH/7 days): Form 2
- solid state form by XRPD after storage ([1]; 40° C./75% RH/7 days): Form 1
- XRPD after heating [4]: unchanged XRPD
- Reversible Water Uptake between 0-90% RH [2]: ~23%
- Solid State Form After GVS (XRPD) [2]: Form 2

Compound: Cc1cc(OC/C=C(/c2ccc(F)cc2)c2ccc(C#CCN3CCOCC3)cc2)ccc1OCC(=O)[O-].[Na+] [Form 5, sodium (E)-2-(4-((3-(4-fluorophenyl)-3-(4-(3-morpholinoprop-1-yn-1-yl)phenyl)allyl)oxy)-2-methylphenoxy)acetate]
- solid form stability on drying [3]: converts to Form 1
- Reversible Water Uptake between 0-90% RH [2]: ~11%
- Solid State Form After GVS (XRPD) [2]: Form 1

Compound: Cc1cc(SCc2sc(-c3ccc(C(F)(F)F)cc3)nc2C)ccc1OCC(=O)O [GW1516]
- energy substrate usage ([5]; 8 weeks treatment): a clear shift in energy substrate usage from glucose to fatty acid oxidation
- physical performance ([5]; in combination with exercise, 4 weeks): enhanced physical performance

Compound: Cc1cc(OC/C=C(/c2ccc(F)cc2)c2ccc(C#CCN3CCOCC3)cc2)ccc1OCC(=O)[O-].[Na+] [Pattern 5, sodium (E)-2-(4-((3-(4-fluorophenyl)-3-(4-(3-morpholinoprop-1-yn-1-yl)phenyl)allyl)oxy)-2-methylphenoxy)acetate]
- solid form stability [3]: unstable

Compound: Cc1cc(OC/C=C(/c2ccc(F)cc2)c2ccc(C#CCN3CCOCC3)cc2)ccc1OCC(=O)[O-].[Na+] [Pattern 8, sodium (E)-2-(4-((3-(4-fluorophenyl)-3-(4-(3-morpholinoprop-1-yn-1-yl)phenyl)allyl)oxy)-2-methylphenoxy)acetate]
- solid form stability on drying [3]: converts to Form 1

Compound: Cc1cc(OC/C=C(/c2ccc(F)cc2)c2ccc(C#CCN3CCOCC3)cc2)ccc1OCC(=O)[O-].[Na+] [Pattern 9, sodium (E)-2-(4-((3-(4-fluorophenyl)-3-(4-(3-morpholinoprop-1-yn-1-yl)phenyl)allyl)oxy)-2-methylphenoxy)acetate]
- Reversible Water Uptake between 0-90% RH [2]: ~27%
- Solid State Form After GVS (XRPD) [2]: Unchanged (Pattern 9)

Compound: Cc1cc(OC/C=C(/c2ccc(F)cc2)c2ccc(C#CCN3CCOCC3)cc2)ccc1OCC(=O)[O-].[Na+] [amorphous, sodium (E)-2-(4-((3-(4-fluorophenyl)-3-(4-(3-morpholinoprop-1-yn-1-yl)phenyl)allyl)oxy)-2-methylphenoxy)acetate]
- change in XRPD after storage ([1]; ambient storage conditions for 24 hours, 48 hours, 7 days, or 10 days): no change
- change in XRPD after storage ([1]; static storage of 40° C./75% RH for 10 days): no change
